According to patent publication US6680025B2, “Device and method for photoactivation” (Cerus Corporation, priority 1989, dated 2004):

How the values were obtained:
Format in all cases: biochemical
HIV 115-mer [1] = experiment: Effect of unirradiated isopsoralen on PCR; conditions: for Counts (CPM) of PCR product: 30 cycles, 0 μg/ml gave 42200
Method: To systematically evaluate the effect of the presence of increasing concentrations of isopsoralen on PCR, AMDMIP (0, 100, 200, 400 μg/ml) was added to 107 copies of HIV 115-mer as template. PCR was then carried out for 30 cycles in the presence of α-^32P-dCTP. The PCR product was run on denaturing polyacrylamide gel and autoradiographed. The bands were thereafter cut and counted.

HIV 115-mer [2] = experiment: Crosslinkable Oligonucleotide Probe Analysis (COP) after sterilization
Method: Preparation of Samples: The HIV 115-mer system with primers SK-38/SK-39 was used for the experiment (see FIG. 36, “HIV Oligonucleotide System”). Two types of starting template were used: previously amplified 115-mer or genomic DNA, isolated from an individual known to be infected with HIV (MACS sample). For previously amplified 115-mer between 10^5 and 10^6 copies were used for starting template. For the genomic (MACS) sample, approximately 1 μg (3×10^5 copies) of genomic DNA were used. Two PCR samples were prepared for each type of template then amplification was carried out for either 20 or 30 cycles. One of the two PCR samples contained AMDMIP at 200 μg/ml while the other was AMDMIP free. Following amplification, the AMDMIP containing samples were divided and half were irradiated. Analysis (OH or COP) was then done on the three samples from each set (AMDMIP free, AMDMIP unirradiated, and AMDMIP irradiated) for each cycle number. The AMDMIP free samples served as control, the AMDMIP unirradiated sampes adressed the effect of non-covalently bound AMDMIP on detection, and AMDMIP irradiated samples addressed the effect of covalently bound AMDMIP on detection.
COP and OH assays were performed a follows. 10 μl of the PCR reaction mixture was added to 3.3 μl of “probe mix” [5′-labelled SK-19 (normal or monoadducted) at 10^−8 M containing EDTA and an appropriate salt mixtures], overlaid with 30-40 μl of light mineral oil, then heated to 95-100° C. for 5 minutes. For COP, the hybridization mixture as placed in the PTI device at 56° C. and irradiated for 15 minutes. Following this, loading dyes (containing urea or formamide) were added, the sample heated to 95-100° C. for 5 minutes, quick chilled on wet ice, then loaded on a denaturing PAGE gel followed by electrophoresis under denaturing conditions. For OH reactions, the hybridization mixture was incubated at 56° C. for 30 minutes, loading dyes added, and aliquots loaded directly into a native PAGE gel followed by electrophoresis under native conditions. 1. Samples 1-6 contain previously amplified 115-mer that was re-amplified either 20 (samples 1,3,5) or 30 (Samples 2,4,6) cycles then detected by COP. Samples 1 & 2 are controls (without AMDMIP); samples 3 and 4 are (with AMDMIP and with light) sterilized samples; samples 5 & 6 are (with AMDMIP but without light) controls. The bands corresponding to amplified 115-mer crosslinked to labelled 41-mer probe (SK-19 MA) are the upper bands in FIG. 46. Samples 11-16 are the same series except the MACS sample was used as template.

[3] = tested on: Molt-4 human genomic DNA (human beta globin gene); experiment: Sterilization of genomic target before PCR (beta globin 174 bp)
Method: Four samples containing 1 μg of Molt-4 human genomic DNA target were prepared for PCR with primers KM 29 (5′-[…]) and HRI-12 (5′-[…]). These primers give a 174 bp product within the human beta globin gene. All four samples contained AMDMIP at 100 μg/ml, and were irradiated for 0, 5, 10 or 15 minutes prior to PCR amplification. […] Amplification were carried out in 1×Taq buffer (50 mM KCl, 10 mM Tris pH 8.5, 2.5 mM MgCl2, 200 μg/ml gelatin), 175 μM each dNTP, 20 μM primer with 2.5 units of Taq polymerase and 100 μg/ml AMDMIP present during amplification. PCR was carried out for 30 cycles; one cycle=30 sec at 94° C. (denaturing), 30 sec at 55° C. (primer annealing), and 60 sec at 72° C. (extension). α-[…] was used as an internal label. After amplification, the samples were analyzed for product by PAGE followed by autoradiography.

human placental DNA = experiment: PCR in presence of AMDMIP and DMSO co-solvent; conditions: AMDMIP 200 μg/ml
Method: In this example, the effect of DMSO on PCR amplification in the presence of high concentrations of sterilizing compound (AMDMIP) was investigated. Samples were prepared for PCR which contained 1 μg of human placental DNA either with or without (unirradiated) AMDMIP (200 μg/ml). The samples were amplified 30 cycles under standard PCR conditions in the presence of 0%, 1%, 5% or 10% DMSO. The reaction mix contained α-^32P-dCTP. Following amplification, the samples were analyzed by PAGE (data not shown).

Cc1oc2ccc3c(C)cc(=O)oc3c2c1CN [AMDMIP, 4′-Aminomethyl-4,5′-dimethylisopsoralen]
concentration compatible with the PCR system (HIV 115-mer [1]; HIV 115-mer system): up to 400 μg/ml
Counts (CPM) of PCR product (HIV 115-mer [1]; unirradiated AMDMIP 100 μg/ml): 77200 CPM
Counts (CPM) of PCR product (HIV 115-mer [1]; unirradiated AMDMIP 200 μg/ml): 77500 CPM
Counts (CPM) of PCR product (HIV 115-mer [1]; unirradiated AMDMIP 400 μg/ml): 69400 CPM
COP hybrid band CPM (HIV 115-mer [2]; sample 3: previously amplified 115-mer, 20 cycles, AMDMIP 200 μg/ml with light): 1944 CPM
COP hybrid band CPM as % of AMDMIP-free control (HIV 115-mer [2]; sample 3: previously amplified 115-mer, 20 cycles, AMDMIP with light): 62%
COP hybrid band CPM (HIV 115-mer [2]; sample 4: previously amplified 115-mer, 30 cycles, AMDMIP 200 μg/ml with light): 36452 CPM
COP hybrid band CPM as % of AMDMIP-free control (HIV 115-mer [2]; sample 4: previously amplified 115-mer, 30 cycles, AMDMIP with light): 83%
COP hybrid band CPM (HIV 115-mer [2]; sample 5: previously amplified 115-mer, 20 cycles, AMDMIP 200 μg/ml without light): 4480 CPM
COP hybrid band CPM as % of AMDMIP-free control (HIV 115-mer [2]; sample 5: previously amplified 115-mer, 20 cycles, AMDMIP without light): 144%
COP hybrid band CPM (HIV 115-mer [2]; sample 6: previously amplified 115-mer, 30 cycles, AMDMIP 200 μg/ml without light): 39596 CPM
COP hybrid band CPM as % of AMDMIP-free control (HIV 115-mer [2]; sample 6: previously amplified 115-mer, 30 cycles, AMDMIP without light): 90%
COP hybrid band CPM (HIV 115-mer [2]; sample 13: MACS genomic DNA, 20 cycles, AMDMIP 200 μg/ml with light): 460 CPM
COP hybrid band CPM as % of AMDMIP-free control (HIV 115-mer [2]; sample 13: MACS genomic DNA, 20 cycles, AMDMIP with light): 52%
COP hybrid band CPM (HIV 115-mer [2]; sample 14: MACS genomic DNA, 30 cycles, AMDMIP 200 μg/ml with light): 41777 CPM
COP hybrid band CPM as % of AMDMIP-free control (HIV 115-mer [2]; sample 14: MACS genomic DNA, 30 cycles, AMDMIP with light): 78%
COP hybrid band CPM (HIV 115-mer [2]; sample 15: MACS genomic DNA, 20 cycles, AMDMIP 200 μg/ml without light): 464 CPM
COP hybrid band CPM as % of AMDMIP-free control (HIV 115-mer [2]; sample 15: MACS genomic DNA, 20 cycles, AMDMIP without light): 53%
COP hybrid band CPM (HIV 115-mer [2]; sample 16: MACS genomic DNA, 30 cycles, AMDMIP 200 μg/ml without light): 35176 CPM
COP hybrid band CPM as % of AMDMIP-free control (HIV 115-mer [2]; sample 16: MACS genomic DNA, 30 cycles, AMDMIP without light): 66%
impact of unirradiated AMDMIP on amplification ([3]; 100 μg/ml (data not shown)): no significant impact on amplification
amplification of genomic target irradiated in presence of AMDMIP ([3]; AMDMIP 100 μg/ml, irradiated 0, 5, 10 or 15 minutes before PCR, 30 cycles): no amplification of the sterilized genomic target
product band CPM (human placental DNA; 0% DMSO): 2500 CPM
product band CPM (human placental DNA; 1% DMSO): 2800 CPM
product band CPM (human placental DNA; 5% DMSO): 86,000 CPM
product band CPM (human placental DNA; 10% DMSO): 102,000 CPM
amplification in presence of unirradiated AMDMIP (human placental DNA; no DMSO, 30 cycles): virtually no detectable amplification product
